Reference: ChEMBL document CHEMBL4613232, “Novel 3,3-disubstituted oxindole derivatives. Synthesis and evaluation of the anti-proliferative activity” (Bioorg Med Chem Lett, 2020)

Assays:
[1] = system: MIA PaCa-2; assay: Antiproliferative activity against human MIAPaCa2 cells; type: functional, cell-based
[2] = system: PBMC; assay: Cytotoxicity against human PBMC assessed as reduction in cell viability; type: cell-based
[3] = system: PC-3; assay: Antiproliferative activity against human PC3 cells; type: functional, cell-based
[4] = system: SW-620; assay: Antiproliferative activity against human SW620 cells; type: functional, cell-based
[5] = system: MCF7; assay: Antiproliferative activity against human MCF7 cells; type: functional, cell-based
[6] = system: A-375; assay: Antiproliferative activity against human A375 cells; type: functional, cell-based

Row | Structure (SMILES) | IC50 [1] [µM] | IC50 [3] [µM] | IC50 [4] [µM] | IC50 [5] [µM] | IC50 [6] [µM] | IC50 [2] [µM] | Activity [1] | Activity [4]
1 | O=CNC1(Cc2ccccc2)C(=O)Nc2ccc(Br)cc21 (centres undefined) | 7.46 | 8.95 | 9.81 | 17.7 | 6.41 | 75.3 | – | –
2 | NC1(Cc2ccccc2)C(=O)Nc2ccc(Br)cc21 (centres undefined) | > 50 | > 50 | > 50 | > 50 | > 50 | > 100 | – | –
3 | CCOP(=O)(NC1(Cc2ccccc2)C(=O)Nc2ccc(Br)cc21)OCC (centres undefined) | 30.2 | > 50 | 27.7 | > 50 | > 50 | 51.8 | Dose-dependent effect | Dose-dependent effect
4 | CC(=O)N1C(=O)C(Cc2ccccc2)(NC=O)c2ccccc21 (centres undefined) | 47 | 18.2 | > 50 | 14.4 | > 50 | 45.5 | – | –
5 | CCOC(=O)N1C(=O)C(Cc2ccccc2)(NC=O)c2cc(Br)ccc21 (centres undefined) | > 50 | 32.5 | > 50 | > 50 | > 50 | > 100 | – | –

Now from value to molecule, other results behind:

Row | IC50 [1] [µM] | IC50 [3] [µM] | IC50 [4] [µM] | IC50 [5] [µM] | IC50 [6] [µM] | Structure (SMILES) | IC50 [2] [µM] | Activity [1] | Activity [4]
6 | – | – | > 50 | > 50 | > 50 | CCCC1(NC(=O)OC)C(=O)Nc2ccccc21 (centres undefined) | > 100 | – | –
7 | > 50 | 17 | > 50 | 30.4 | > 50 | CCOC(=O)CC1(NC=O)C(=O)N(C(C)=O)c2ccccc21 (centres undefined) | > 100 | – | –
8 | 43.1 | > 50 | 37.1 | > 50 | > 50 | NC1(Cc2ccccc2)C(=O)Nc2ccccc21 (centres undefined) | > 100 | – | –
9 | > 50 | > 50 | > 50 | > 50 | > 50 | O=C(NC1(Cc2ccccc2)C(=O)Nc2ccc(Br)cc21)c1ccccc1 (centres undefined) | > 100 | – | –
